Results as given in patent US20110152166A1, “METHOD OF MODULATION OF PROTEIN PHOSPHORYLATION-DEPENDENT CONFORMATIONAL TRANSITIONS WITH LOW MOLECULAR WEIGHT COMPOUNDS” (priority 2006, published 2011).
Substitutions are numbered along the chain they refer to. Like-named read-outs stand apart in the source and are kept apart here. Ends that are not written are not given here.

Legend:
Assay in all cases: PDK1 activity assay with T308tide
Format in all cases: biochemical
GST-PDK1 [Arg131Met] = target: T1, GST-PDK1 [Arg131Met] (Homo sapiens, UniProt O15530, R131M)
T1 construct: different protein constructs, comprising the full length protein or the catalytic domain alone; made in house; host or cells: HEK293 cells (pEBG-2T-PDK1 mutant)
T1 sequence (O15530 1-556 R131M): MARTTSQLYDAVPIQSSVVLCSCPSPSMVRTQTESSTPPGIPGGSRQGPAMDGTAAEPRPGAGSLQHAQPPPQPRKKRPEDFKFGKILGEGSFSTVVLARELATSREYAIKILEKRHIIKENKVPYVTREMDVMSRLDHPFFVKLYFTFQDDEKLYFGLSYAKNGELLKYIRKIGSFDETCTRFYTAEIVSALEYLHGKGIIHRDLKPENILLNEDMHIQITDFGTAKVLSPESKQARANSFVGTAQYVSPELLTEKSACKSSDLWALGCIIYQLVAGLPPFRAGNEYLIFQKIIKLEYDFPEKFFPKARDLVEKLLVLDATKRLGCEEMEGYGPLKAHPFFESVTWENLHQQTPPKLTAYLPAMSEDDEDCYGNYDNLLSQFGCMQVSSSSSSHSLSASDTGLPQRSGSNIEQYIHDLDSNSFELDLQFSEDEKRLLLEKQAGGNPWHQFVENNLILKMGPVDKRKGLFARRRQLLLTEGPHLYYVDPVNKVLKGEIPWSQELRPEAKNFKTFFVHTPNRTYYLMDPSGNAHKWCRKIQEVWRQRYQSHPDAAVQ

GST-PDK1 [Gln150Glu] = target: T2, GST-PDK1 [Gln150Glu] (Homo sapiens, UniProt O15530, Q150E)
T2 construct: different protein constructs, comprising the full length protein or the catalytic domain alone; made in house; host or cells: HEK293 cells (pEBG-2T-PDK1 mutant)
T2 sequence (O15530 1-556 Q150E): T1 sequence (O15530 1-556 R131M) with M131R, Q150E

GST-PDK1 [Val124Ala] = target: T3, GST-PDK1 [Val124Ala] (Homo sapiens, UniProt O15530, V124A)
T3 construct: different protein constructs, comprising the full length protein or the catalytic domain alone; made in house; host or cells: HEK293 cells (pEBG-2T-PDK1 mutant)
T3 sequence (O15530 1-556 V124A): T1 sequence (O15530 1-556 R131M) with V124A, M131R

## O=C(O)CSC(CC(=O)c1ccc(Cl)cc1)c1ccccc1 (centres unmarked) [Compound 1]
GST-PDK1 [Arg131Met]; Arg131 mutated to Met
  activation of PDK1 mutant (in words): no longer activated
GST-PDK1 [Arg131Met]; GST-PDK1 [Arg131Met]
  AC50: No Effect
GST-PDK1 [Gln150Glu]
  Max. activity: 2.5 ± 0.7 U/mg
GST-PDK1 [Gln150Glu]; read-out: AC50
  AC50: > 200000 nM
GST-PDK1 [Val124Ala]
  AC50: > 200000 nM
  Max. activity: 2.6 ± 0.5 U/mg

## REPRILSEEEQEMFRDFDYIADWC [PIFtide, reference compound]
GST-PDK1 [Arg131Met]; GST-PDK1 [Arg131Met]
  Max. activity: 0.34 ± 0.06 U/mg
GST-PDK1 [Arg131Met]; GST-PDK1 [Arg131Met], read-out: AC50
  AC50: 290 ± 50 nM
GST-PDK1 [Gln150Glu]
  AC50: No Effect
GST-PDK1 [Val124Ala]
  AC50: 210 ± 30 nM
  Max. activity: 1.91 ± 0.06 U/mg
